Test results as given in patent US8519188B2, “Compounds which can be used for the treatment of cancers” (Marc-Henry Pitty, priority 2008, dated 2013).

Key:
[1] = system: MCF-7 breast cancer cell line; assay: Cell proliferation (CellTiter 96 AQueous MTS/PMS), MCF-7; type: cell-based; settings: Homo sapiens, MCF7; MCF-7; 72 hours of incubation; concentration that induces the death of 50% of the cells; read-out: CI50 for various cell lines (nM) MCF-7
Procedure: (§1) The effects of the compounds of the invention on the proliferation of cancer cells were studied on various human cancer cell lines of various tissue origins (MCF-7: breast cancer, MCF-7/adr adriamycin-resistant breast cancer, ARH-77: myeloma, ARH-77/Dox: doxorubicin (other name for adriamycin)-resistant myeloma, HL-60: acute promyelocytic leukaemia, HL-60/R10: doxorubicin-resistant acute promyelocytic leukaemia). The cancer cells used for this study were incubated at 37° C. in the presence of one of the compounds of the invention added to the culture medium at various concentrations.
(§2) The cancer cell lines originate from the ATCC (American Type Culture Collection) in the case of MCF-7, ARH-77 and HL-60, from Pharmacell (Paris, France) for HL-60/R10, from Oncodesign (Dijon, France) for ARH-77/Dox and from the Pitié Salpetrière Hospital for MCF-7/adr. They were cultivated in a RPMI 1640 medium containing 2 mM L-glutamine and supplemented with 10% foetal calf serum. All the cell lines were maintained in culture at 37° C. in a moist atmosphere containing 5% CO2. Cell proliferation was evaluated using the “CellTiter 96® AQueous” reagent (Promega, Wis., USA) while adhering to the manufacturer's instructions. The cells were seeded in 96-well culture plates in a proportion of from 5,000 to 10,000 cells per well in 200 μl of culture medium. After 24 hours of preincubation at 37° C., the compounds of the invention dissolved in dimethyl sulphoxide (DMSO) were added individually to each of the wells in a proportion of 2 μl per well. After 72 hours of incubation at 37° C. in a moist atmosphere containing 5% CO2, 40 μL of a MTS/PMS ([3-(4,5-dimethylthiazol-2-yl)-5-(3-carboxymethoxyphenyl)-2-(4-sulphophenyl)-2H-tetrazolium phenazine methosulphate) solution were added to each well.

[2] = system: MCF-7/adr adriamycin-resistant breast cancer cell line; assay: Cell proliferation (CellTiter 96 AQueous MTS/PMS), MCF-7/adr; type: cell-based; settings: Homo sapiens, NCI/ADR-RES; MCF-7/adr; 72 hours of incubation; concentration that induces the death of 50% of the cells; read-out: CI50 for various cell lines (nM) MCF-7/adr
Procedure: as §1, §2

SMILES	IC50 [1] [nM]	IC50 [2] [nM]
C#CC(=O)N(c1cccc(C(F)(F)F)c1)C(C(=O)NC1CCCCC1)c1ccc(Cl)cc1Cl (stereo not shown) [Compound 86, Propynoic Acid [cyclohexylcarbamoyl-(2,4-dichlorophenyl)methyl]-(3-trifluoromethylphenyl)amide]	216	0.8
O=C(NC1CCCCC1)C(c1cccs1)N(C(=O)CCl)c1ccc(O)cc1 (stereo not shown) [Compound 128, 2-[(2-Chloroacetyl)-(4-hydroxyphenyl)amino]-N-cyclohexyl-2-thiophen-2-yl-acetamide]	133	86
C#CC(=O)N(c1cccc(C(F)(F)F)c1)C(C(=O)NC1CCCCC1)c1cccc2c1OCO2 (stereo not shown) [Compound 84, Propynoic Acid (benzo[1,3]dioxol-4-yl-cyclohexylcarbamoylmethyl)-(3-trifluoromethyl-phenyl)amide]	250	1.6
COc1ccc(CNC(=O)C(C)(C)N(C(=O)CCl)c2ccc(Oc3ccccc3)cc2C)cc1 [Compound 187, 2-[(2-Chloro-acetyl)-(2-methyl-4-phenoxy-phenyl)-amino]-N-(4-methoxy-benzyl)-2-methyl-propionamide]	1130	99
O=C(NC1CCCCC1)C(c1cccs1)N(C(=O)CCl)c1cccc(C(F)(F)F)c1 (stereo not shown) [Compound 110, 2-[(2-Chloroacetyl)-(3-trifluoromethylphenyl)amino]-N-cyclo hexyl-2-thiophen-2-yl-acetamide]	70	1
C#CC(=O)N(c1ccccc1C)C(C(=O)NC1CCCCC1)c1cccs1 (stereo not shown) [Compound 60, Propynoic Acid (cyclohexylcarbamoylthiophen-2-yl-methyl)-o-tolylamide]	357	3.5
C#CC(=O)N(c1ccc(Oc2ccccc2)cc1)C(C(=O)NC1CCCCC1)c1cccs1 (stereo not shown) [Compound 55, Propynoic Acid (cyclohexylcarbamoylthiophen-2-yl-methyl)-(4-phenoxyphenyl)amide]	694	2.4
C#CC(=O)N(c1cccc(C#C)c1)C(C(=O)NC1CCCCC1)c1cccs1 (stereo not shown) [Compound 56, Propynoic Acid (cyclohexylcarbamoylthiophen-2-yl-methyl)-(3-ethynylphenyl)amide]	640	1.4
C#CC(=O)N(c1ccc(F)cc1F)C(C(=O)NC1CCCCC1)c1cccs1 (stereo not shown) [Compound 50, Propynoic Acid (cyclohexylcarbamoylthiophen-2-yl-methyl)-(2,4-difluorophenyl)amide]	282	2
C#CC(=O)N(c1cccc(C(F)(F)F)c1)C(C(=O)NC1CCCCC1)c1ccc(F)cc1 (stereo not shown) [Compound 74, Propynoic Acid [cyclohexylcarbamoyl-(4-fluorophenyl)methyl]-(3-trifluoromethylphenyl)amide]	506	2.9
C#CC(=O)N(c1ccc2[nH]ncc2c1)C(C(=O)NC1CCCCC1)c1cccs1 (stereo not shown) [Compound 49, Propynoic Acid (cyclohexylcarbamoylthiophen-2-yl-methyl)-(1H-indazol-5-yl)-amide]	220	1
O=C(CN(C(=O)CCl)c1cccc(C(F)(F)F)c1)NC1CCCCC1 [Compound 130, 2-Chloro-N-cyclohexylcarbamoylmethyl-N-(3-trifluoromethylphenyl)acetamide]	203	34
COc1ccccc1N(C(=O)CCl)C(C(=O)NC1CCCCC1)c1cccs1 (stereo not shown) [Compound 124, 2-[(2-Chloroacetyl)-(2-methoxyphenyl)amino]-N-cyclohexyl-2-thiophen-2-yl-acetamide]	> 2000	27
C#CC(=O)N(c1cccc(C(F)(F)F)c1)C(C(=O)NC1CCCCC1)c1cccc(F)c1F (stereo not shown) [Compound 106, Propynoic Acid [cyclohexylcarbamoyl-(2,3-difluorophenyl)methyl]-(3-trifluoromethylphenyl)amide]	260	1
C#CC(=O)N(c1cccc(C(F)(F)F)c1)C(C(=O)NC1CCCCC1)c1ccccc1[N+](=O)[O-] (stereo not shown) [Compound 85, Propynoic Acid [cyclohexylcarbamoyl-(2-nitrophenyl)methyl]-(3-trifluoromethylphenyl)amide]	177	1.6
C#CC(=O)N(c1cccc(C(F)(F)F)c1)C(C(=O)NC1CCCCC1)c1ccc(SC)cc1 (stereo not shown) [Compound 88, Propynoic Acid [cyclohexylcarbamoyl-(4-methylsulphanylphenyl)methyl]-(3-trifluoromethylphenyl)amide]	334	1.4
C#CC(=O)N(c1cccc(-c2ccnc(C)n2)c1)C(C(=O)NC1CCCCC1)c1cccs1 (stereo not shown) [Compound 38, Propynoic Acid (cyclohexylcarbamoylthiophen-2-yl-methyl)-[3-(2-methylpyrimidin-4-yl)-phenyl]amide]	272	1.9
C#CC(=O)N(c1cccc(C(F)(F)F)c1)C(C(=O)NC1CCCCC1)c1cccc(Oc2ccccc2)c1 (stereo not shown) [Compound 90, Propynoic Acid [cyclohexylcarbamoyl-(3-phenoxyphenyl)methyl]-(3-trifluoromethylphenyl)amide]	820	2.2
O=C(NC1CCCCC1)C(c1ccc(N2CCCC2)cc1)N(C(=O)CCl)c1cccc(C(F)(F)F)c1 (stereo not shown) [Compound 150]	230	0.6
O=C(NC1CCCCC1)C(c1cccs1)N(C(=O)CBr)c1cccc(C(F)(F)F)c1 (stereo not shown) [Compound 107, 2-[(2-Bromoacetyl)-(3-trifluoromethylphenyl)amino]-N-cyclohexyl-2-thiophen-2-yl-acetamide]	267	0.5
COC(=O)CCNC(=O)C(c1cccs1)N(C(=O)CCl)c1cccc(C(F)(F)F)c1 (stereo not shown) [Compound 139, 3-{2-[(2-Chloroacetyl)-(3-trifluoromethylphenyl)amino]-2-thiophen-2-yl-acetylamino}propionic acid methyl ester]	468	63
COC(=O)c1ccc(NC(=O)C(c2cccs2)N(C(=O)CCl)c2cccc(C(F)(F)F)c2)cc1 (stereo not shown) [Compound 154]	88	3.5
CN(C)c1ccc(C(C(=O)NC2CCCCC2)N(C(=O)CCl)c2cccc(C(F)(F)F)c2)cc1 (stereo not shown) [Compound 147]	92	1.1
C#CC(=O)N(c1cccc(C(F)(F)F)c1)C(C(=O)Nc1ccccc1OCc1ccccc1)c1cccs1 (stereo not shown) [Compound 112, Propynoic Acid [(2-benzyloxyphenylcarbamoyl)thiophen-2-yl-methyl]-(3-trifluoromethylphenyl)amide]	200	1.8
CN(C(=O)N1CCN(C(=O)C(c2cccs2)N(C(=O)CCl)c2cccc(C(F)(F)F)c2)CC1)c1ccccc1 (stereo not shown) [Compound 204, 4-{2-[(2-Chloroacetyl)-(3-trifluoromethylphenyl)-amino]-2-thiophen-2-yl-acetyl}piperazine-1-carboxylic acid methylphenyl-amide]	741	89
C#CC(=O)N(c1cccc(C(F)(F)F)c1)C(C(=O)NC1CCCCC1)c1ccc(N2CCCC2)cc1 (stereo not shown) [Compound 101, Propynoic Acid [cyclohexylcarbamoyl-(4-pyrrolidin-1-yl-phenyl)methyl]-(3-trifluoromethylphenyl)amide]	416	1.1
